Laboratory results from patent US8124766B2, “Inhibitors of diacylglycerol acyltransferase” (Madrigal Pharmaceuticals, Inc., priority 2008, dated 2012).
Where a name gives a salt, the structure may show the parent alone.

Each compound was assayed on DGAT (assay: DGAT Phospholipid FlashPlate Assay). Conditions: DGAT pellet, DAG-coated PL-FlashPlate, 14C-Pal-CoA, 37° C. for 1 hour; read-out: DGAT Inhibition Activity IC50.
Format: biochemical
Protocol: DGAT Phospholipid FlashPlate Assay
Materials for the assay were: PL-FlashPlate: Phospholipid FlashPlates from PerkinElmer, catalog number SMP108; DAG (1,2-Dioleoyl-sn-glycerol) 10 mM suspended in water containing 0.1% Triton X-100; ^14C-Pal-CoA (palmitoyl coenzyme A, [palmitoyl-1-^14C]) from PerkinElmer, catalog number NEC-555 with a specific activity of 55 mCi/mmol; and DGAT pellet, with a protein concentration of 9.85 mg/ml.
Aqueous buffers were prepared or purchased as follows: The coating buffer (CB) was purchased from PerkinElmer, catalog number SMP900A; the reaction buffer (RB) was 50 mM Tris-HCl, pH 7.5, 100 mM NaCl, 0.01% BSA in water; the washing buffer (WB) is 50 mM Tris-HCl, pH 7.5, 100 mM NaCl, 0.05% deoxycholic acid sodium salt in water; the dilution buffer (DB) was 50 mM Tris-HCl, pH 7.5, 100 mM NaCl, 1 mM EDTA, 0.2% Triton X-100 in water.
1,2-Dioleoyl-sn-glycerol (DAG, 10 mmoles) was diluted to 500 μM with coating buffer (CB). The diluted DAG solution was then added to 384-well PL-FlashPlates at 60 μl per well, and incubated at room temperature for 2 days. The coated plates were then washed twice with washing buffer (WB) before use. Test compounds were serial diluted to 2000, 666.7, 222.2, 74.1, 24.7, 8.2, 2.7 and 0.9 μM in 100% DMSO. Diluted compound were further diluted 10 fold with reaction buffer (RB). ^14C-Pal-CoA was diluted to 8.3 μM with RB. The DGAT pellet was diluted to 0.13 mg protein/ml with dilution buffer (DB) immediately before it was added to the PL-FlashPlates to start the reaction. 20 μl of the RB-diluted compounds (or 10% DMSO in RB for Total and Blank), 15 μl of RB diluted 14C-Pal-CoA and 15 μl of DB diluted DGAT pellet (DB without DGAT for Blanks) were transferred to each well of the PL-FlashPlates. The reaction mixtures were incubated at 37° C. for 1 hour. The reactions were stopped by washing 3 times with WB. Plates were sealed with Top-seal and read on a Topcount instrument.
Calculation of IC50: The IC50 values for each compound were generated using an Excel template. The Topcount rpm readings of Total and Blank were used as 0% and 100% inhibition. The percent inhibition values of reactions in the presence of compounds were calculated, and plotted against compound concentrations. All data were fitted into a Dose Response One Site model (4 parameter logistic model) as the following: (A+((B−A)/(1+((x/C)^D)))), with A and B as the bottom and top of the curve (highest and lowest inhibition), respectively, and C as IC50 and D as Hill Coefficient of the compound.

| IC50 | SMILES |
| --- | --- |
| 0.18 µM | CCOc1cccc2c1cc(C(=O)Nc1ccc(N3CCN(C(=O)OC(C)(C)C)CC3)nc1)n2CC [Example 5, 4-{5-[(4-Ethoxy-1-ethyl-1H-indole-2-carbonyl)-amino]-pyridin-2-yl}-piperazine-1-carboxylic acid tert-butyl ester] |
| 0.385 µM | CCn1c(C(=O)Nc2ccc(N3CCN(C(=O)[C@H]4CC[C@H](C(=O)O)CC4)CC3)nc2)cc2c(OC)cccc21 [Example 28, trans-4-(4-{5-[(1-Ethyl-4-methoxy-1H-indole-2-carbonyl)-amino]-pyridin-2-yl}-piperazine-1-carbonyl)-cyclohexanecarboxylic acid] |
| 0.248 µM | CCn1c(C(=O)Nc2ccc(N3CCN(C(=O)OC(C)(C)C)CC3)nc2)cc2c(OC)cc(OC)cc21 [Example 16, 4-{5-[(1-Ethyl-4,6-dimethoxy-1H-indole-2-carbonyl)-amino]-pyridin-2-yl}-piperazine-1-carboxylic acid tert-butyl ester] |
| 0.105 µM | CCCOc1cccc2c1cc(C(=O)Nc1ccc(N3CCN(C(=O)CC(C)(C)C(=O)O)CC3)nc1)n2CC [Example 11, 4-(4-{5-[(1-Ethyl-4-propoxy-1H-indole-2-carbonyl)-amino]-pyridin-2-yl}-piperazin-1-yl)-2,2-dimethyl-4-oxo-butyric acid] |
| 0.189 µM | CCOc1cccc2c1cc(C(=O)Nc1ccc(N3CCN(C(=O)CC(C)(C)C(=O)O)CC3)nc1)n2CC [Example 6, 4-(4-{5-[(4-Ethoxy-1-ethyl-1H-indole-2-carbonyl)-amino]-pyridin-2-yl}-piperazin-1-yl)-2,2-dimethyl-4-oxo-butyric acid] |
| 0.255 µM | CCn1c(C(=O)Nc2ccc(N3CCN(C(=O)OC(C)(C)C)CC3)nc2)cc2c(Cl)c(Cl)ccc21 [Example 18, 4-{5-[(4,5-Dichloro-1-ethyl-1H-indole-2-carbonyl)-amino]-pyridin-2-yl}-piperazine-1-carboxylic acid tert-butyl ester] |
| 0.282 µM | CCOC(=O)N1CCN(c2ccc(NC(=O)c3cc4c(OC)cccc4n3CC)cn2)CC1 [Example 21, 4-{5-[(1-Ethyl-4-methoxy-1H-indole-2-carbonyl)-amino]-pyridin-2-yl}-piperazine-1-carboxylic acid ethyl ester] |
| 0.032 µM | CC(C)(CC(=O)N1CCN(c2ccc(NC(=O)c3cc4c(Cl)cccc4s3)cn2)CC1)C(=O)O [Example 2, 4-(4-{5-[(4-Chloro-benzo[b]thiophene-2-carbonyl)-amino]-pyridin-2-yl}-piperazin-1-yl)-2,2-dimethyl-4-oxo-butyric acid] |
| 0.333 µM | CCn1c(C(=O)Nc2ccc(C3CCN(C(=O)CC(C)(C)C(=O)O)CC3)cc2)cc2c(Cl)c(Cl)ccc21 [Example 9, 4-(4-{4-[(4,5-Dichloro-ethyl-1H-indole-2-carbonyl)-amino]-phenyl}-piperidin-1-yl)-2,2-dimethyl-4-oxo-butyric acid] |
| 0.512 µM | CC(C)(C)OC(=O)N1CCN(c2ccc(NC(=O)c3cc4c(Cl)cccc4s3)cc2)CC1 [Example 24, 4-{4-[(4-Chloro-benzo[b]thiophene-2-carbonyl)-amino]-phenyl}-piperazine-1-carboxylic acid tert-butyl ester] |
| 0.208 µM | CCOc1cccc2c1cc(C(=O)Nc1ccc(O[C@H]3CCN(C(=O)CC(C)(C)C(=O)O)C3)cc1)n2CC [Example 66, 4-((S)-3-{4-[(4-Ethoxy-1-ethyl-1H-indole-2-carbonyl)-amino]-phenoxy}-pyrrolidin-1-yl)-2,2-dimethyl-4-oxo-butyric acid] |
| 0.328 µM | CCCOc1cccc2c1cc(C(=O)Nc1ccc(N3CCN(C(=O)OC(C)(C)C)CC3)nc1)n2CC [Example 10, 4-{5-[(1-Ethyl-4-propoxy-1,1-indole-2-carbonyl)-amino]-pyridin-2-yl}-piperazine-1-carboxylic acid tert-butyl ester] |
| 0.086 µM | CCn1c(C(=O)Nc2ccc(N3CCN(C(=O)OC(C)(C)C)CC3)nc2)cc2c(OC)c(OC)ccc21 [Example 22, 4-{5-[(1-Ethyl-4,5-dimethoxy-1H-indole-2-carbonyl)-amino]-pyridin-2-yl}-piperazine-1-carboxylic acid tert-butyl ester] |
| 0.433 µM | CCn1c(C(=O)Nc2ccc(N3CCN(C(=O)OC(C)(C)C)CC3)nc2)cc2c(C(F)(F)F)cccc21 [Example 14, 4-{5-[(1-Ethyl-4-trifluoromethyl-1H-indole-2-carbonyl)-amino]-pyridin-2-yl}-piperazine-1-carboxylic acid tert-butyl ester] |

Continued, compound first:

| SMILES | IC50 |
| --- | --- |
| CCOC(=O)N1CCC(Oc2ccc(NC(=O)c3oc4ccccc4c3COC)cc2)C1 (centres unmarked) [Example 81, 3-{4-[(3-Methoxymethyl-benzofuran-2-carbonyl)-amino]-phenoxy}-pyrrolidine-1-carboxylic acid ethyl ester] | 0.72 µM |
| CCn1c(C(=O)Nc2ccc(N(C)CCOC)nc2)cc2cc(OCc3ccccc3)ccc21 [Example 40, 5-Benzyloxy-1-ethyl-1H-indole-2-carboxylic acid {6-[(2-methoxy-ethyl)-methyl-amino]-pyridin-3-yl}-amide] | 0.797 µM |
| CCn1c(C(=O)Nc2ccc(C3CCN(C(=O)CC(C(=O)O)c4ccccc4)CC3)cc2)cc2c(Cl)c(Cl)ccc21 (centres unmarked) [Example 61, 4-(4-{4-[(4,5-Dichloro-1-ethyl-1H-indole-2-carbonyl)-amino]-phenyl}-piperidin-1-yl)-4-oxo-2-phenyl-butyric acid] | 0.79 µM |
| CCOc1cccc2c1cc(C(=O)Nc1ccc(O[C@H]3CCN(C(=O)OC(C)(C)C)C3)cc1)n2CC [Example 65, (S)-3-{4-[(4-Ethoxy-1-ethyl-1H-indole-2-carbonyl)-amino]-phenoxy}-pyrrolidine-1-carboxylic acid tert-butyl ester] | 0.701 µM |
| CCOc1ccc2c(C)c(C(=O)Nc3ccc(N4CCN(C(=O)OC(C)(C)C)CC4)cc3)oc2c1OCC [Example 78, 4-{4-[(6,7-Diethoxy-3-methyl-benzofuran-2-carbonyl)-amino]-phenyl}-piperazine-1-carboxylic acid tert-butyl ester] | 0.848 µM |
| CCn1c(C(=O)Nc2ccc(N3CCN(c4ccc(C(=O)O)cc4)CC3)cc2)cc2c(Cl)c(Cl)ccc21 [Example 70, 4-(4-{4-[(4,5-Dichloro-1-ethyl-1H-indole-2-carbonyl)-amino]-phenyl}-piperazin-1-yl)-benzoic acid] | 0.319 µM |
| CCOc1cccc2c1cc(C(=O)Nc1ccc(N3CCN(C(=O)[C@H]4CC[C@H](C(=O)O)CC4)CC3)cc1)n2CC [Example 29, trans-4-(4-{4-[(4-Ethoxy-1-ethyl-1H-indole-2-carbonyl)-amino]-phenyl}-piperazine-1-carbonyl)-cyclohexanecarboxylic acid] | 0.98 µM |
| CCOC(=O)N1CC[C@H](Nc2ccc(NC(=O)c3cc4cc(Cl)ccc4n3CC)cn2)C1 [Example 56, (S)-3-{5-[(5-Chloro-1-ethyl-1H-indole-2-carbonyl)-amino]-pyridin-2-ylamino}-pyrrolidine-1-carboxylic acid ethyl ester] | 0.671 µM |
| CCn1c(C(=O)Nc2ccc(N(C)CCOC)nc2)cc2ccccc21 [Example 37, 1-Ethyl-1H-indole-2-carboxylic acid {6-[(2-methoxy-ethyl)-methyl-amino]-pyridin-3-yl}-amide hydrochloride] | 0.425 µM |
| CCOC(=O)N1CC[C@H](Nc2ccc(NC(=O)c3cc4c(OCC)cccc4n3CC)cn2)C1 [Example 55, (S)-3-{5-[(4-Ethoxy-1-ethyl-1H-indole-2-carbonyl)-amino]-pyridin-2-ylamino}-pyrrolidine-1-carboxylic acid ethyl ester hydrochloride] | 0.414 µM |
| COc1cccc2c(C)c(C(=O)Nc3ccc(N4CCN(C(=O)[C@H]5CC[C@H](C(=O)O)CC5)CC4)cc3)[nH]c12 [Example 76, trans-4-(4-{4-[(7-Methoxy-3-methyl-1H-indole-2-carbonyl)-amino]-phenyl}-piperazine-1-carbonyl)-cyclohexanecarboxylic acid] | 0.058 µM |
| CCOC(=O)N1CC[C@H](Nc2ccc(NC(=O)c3cc4c(C)cccc4n3CC)cn2)C1 [Example 53, (S)-3-{5-[(1-Ethyl-4-methyl-1H-indole-2-carbonyl)-amino]-pyridin-2-ylamino}-pyrrolidine-1-carboxylic acid ethyl ester hydrochloride] | 0.209 µM |
